Data reported in patent US8168232B2, “Formulations and methods of using nitric oxide mimetics in cancer treatment” (priority 2000, dated 2012).
Structures can show the parent of a compound that is named as a salt.

What was measured:
[1] = concentrations up to 500 μM; cited from earlier work
[2] = system: hypoxia-inducible factor-1; settings: hypoxically cultured Hep3B cells; read-out: IC50 for suppression of the adaptive cellular response controlled by hypoxia-inducible factor-1; cited from earlier work
uPAR protein = test: Western blot analysis of uPAR protein in MDA-MB-231 breast carcinoma cells; type: cell-based, human
Experimental: Following incubations, the cells were lysed using a buffer containing 40 mM HEPES pH 7.2, 100 mM NaCl, 20% glycerol, 0.1 mM EDTA pH 8.0, 0.2% Triton X-100, 1 mM DTT, and 2 mM PMSF. The lysates were then subjected to homogenization, DNA shearing (10 times with a 25⅝-gauge needle), boiling (5 minutes) and centrifugation (15 minutes, 14000 g). The supernatant was collected and stored at −80° C. until use. The samples were subjected to SDS-polyacrylamide gel electrophoresis (PAGE) and the resolved proteins were transferred to an Immobilon-P membrane using a wet transfer apparatus (Bio-Rad Laboratories, Mississauga, ON). The membranes were blocked overnight at 4° C. in a solution containing 1% PBS, and 0.01% Tween20 (PBS-T) as well as 5% casein. The blots were subsequently incubated for 1.5 hours with the monoclonal anti-uPAR antibody [MoAb 3937], followed by six 5 minute washes with PBS-T. The membranes were then incubated with a horseradish peroxidase labeled goat anti-mouse IgG secondary antibody for 1.5 hours. Following six additional 5 minute washes with PBS-T, the antigen was detected by enhanced chemiluminescence and the blots were exposed onto Dupont Reflection NEF film.
Following incubation, the cells were lysed using a buffer containing 40 mM HEPES pH 7.2, 100 mM NaCl, 20% glycerol, 0.1 mM EDTA pH 8.0, 0.2% Triton X-100, 1 mM dithiothreitol (DTT), and 2 mM phenylmethyl sulfonyl fluoride (PMSF). The lysates were then subjected to homogenization, DNA shearing (10 times with a 25⅝-gauge needle), boiling (5 minutes) and centrifugation (15 minutes at 14,000×g). The supernatant was collected and stored at −80° C. until use. The samples were subjected to SDS-polyacrylamide gel electrophoresis (PAGE) and the resolved proteins were transferred to an Immobilon-P membrane (Millipore Corp., Bedford, Mass.) using a wet transfer apparatus (BioRad Laboratories, Mississauga, ON). The membranes were blocked overnight at 4° C. in a solution containing 1% PBS, and 0.01% Tween 20 (PBS-T) as well as 5% dry milk powder. The blots were subsequently incubated for 1.5 hours with the monoclonal anti-uPAR (MoAb 3937; American Diagnostica Inc., Greenwich, Conn.), or a polyclonal soluble guanylate cyclase (sGC) antiserum (Cayman Chemical, Ann Arbor, Mich.) followed by six 5-minute washes with PBS-T. Subsequently, the uPAR membranes were incubated for 1 hour with a horseradish peroxidase labelled goat anti-mouse IgG secondary antibody (Bio-Rad, Hercules, Calif.) and the sGC membranes were incubated for 1 hour with a goat anti-rabbit IgG horseradish peroxidase conjugate (VECTOR Laboratories Inc., Burlingame, Calif.). Following six additional 5-minute washes with PBS-T, the antigen was detected by enhanced chemiluminescence (Amersham Canada Inc., Mississauga, ON) and the blots were exposed onto Dupont Reflection NEF film.

[3] = system: Bl6F10 mouse melanoma cells; test: In vitro colony-forming ability of treated Bl6F10 melanoma cells; type: cell-based; settings: 8-Br-cGMP treatment
Experimental: (§1) Cells were then removed from plates with trypsin and 5×10^4 cells were injected i.v. (tail vein) into C57BL6 female mice. Some of the cells treated in vitro were plated onto tissue culture dishes to determine colony-forming ability using the protocol described below in the Section I.J.
(§2) Following harvesting from culture plates, 5×10^4 cells were injected intravenously (tail vein injections) into 5-7 week old C57Bl/6 female mice. Cells were also plated in tissue culture plates to determine the effect of culture conditions on in vitro colony forming ability. Fourteen days after intravenous inoculation, mice were sacrificed and their lungs were removed and fixed in Bouin's fixative. Both melanotic and amelanotic metastatic colonies were counted under a dissecting microscope. Data were expressed as the number of lung nodules per 5×10^4 viable cells injected (as determined by in vitro colony-forming ability) and were analyzed using statistical tests for non-parametric values.

uPAR mRNA = test: Northern blot analysis of uPAR mRNA in MDA-MB-231 breast carcinoma cells; type: cell-based, human
[4] = system: MDA-MB-231 breast carcinoma cells; test: In vitro Matrigel invasion assay, MDA-MB-231; type: cell-based, human
Experimental: The chambers consist of cell culture inserts, 6.5 mm in diameter and with a 8 μm pore size membrane. Each membrane was coated with 100 μL of a 1 mg/mL solution of Matrigel diluted in cold serum-free culture medium (EX-CELL 300), and allowed to dry in a laminar flow cabinet for approximately 12 hours. The Matrigel was then rehydrated by incubating it with 100 μL of serum-free medium for approximately 1 hour. After rehydration, cell suspensions containing 5.0×10^4 or 1.0×10^5 cells in 100 μL of medium, containing both serum and the nitric oxide treatments, were added to each well. Culture medium containing serum and the respective nitric oxide treatment were then added to each insert. The cells were incubated for 24 hours under either hypoxic (1% O2) or control (20% O2) conditions. Following incubation, the non-invading cells were removed from the upper surface of the membrane by wiping with a cotton swab. The cells on the lower surface of the membrane were fixed for 10 minutes with Carnoy's fixative (25% acetic acid, 75% methanol), and then stained for approximately 3 hours with a 1% toluidine blue, 1% sodium borate solution. Following a rinse in phosphate-buffered saline (PBS), the membrane was removed from the insert housing with a small scalpel blade, mounted onto a microscope slide and coverslipped. Invading cells were then viewed under the microscope at 40× magnification and counted. The invasion index for each treatment was calculated by dividing the number of invading cells by the number of cells which invaded under standard conditions. This value was then multiplied by 100 to obtain a percentage. The standard was given a value of 100% and the treatment values were converted to a percentage of the standard. The results were tested for statistical significance using either the Tukey test for pair-wise multiple comparison procedures or the Student-Newman-Keuls method for pair-wise multiple comparison procedures.
The chambers consisted of 6.5-mm inserts with 8-μm pore membranes (Corning Costar Corp., Cambridge, Mass.). Each membrane was coated with 100 μL of a 2.6 mg/mL solution of Matrigel (Collaborative Biochemical Products, Bedford, Mass.) diluted in cold serum-free medium (EX-CELL 300; JRH Biosciences, Lenexa, Kans.), and allowed to dry in a laminar flow cabinet for approximately 12 hours. The Matrigel was then rehydrated with 100 μL of serum-free medium for approximately 1 hour. […] Invading cells were then viewed under the microscope at 40× magnification and counted. The invasion index for each treatment was calculated by dividing the number of invading cells by the number of cells that invaded under standard (20% oxygen) conditions. Invasion indices were expressed as percentages of control (20% oxygen) values. […]

[5] = system: Bl6F10 metastatic melanoma cells; test: In vivo experimental metastasis (lung colonization) model; parameters: species or system C57BL6 mice; settings: cells cultured in 1% O2 with 8-Br-cGMP (1 μM)
Experimental: C57BL6 mice were injected i.v. (tail vein) with a bolus of 5×10^4-10^5 Bl6F10 metastatic melanoma cells. Immediately after the tail vein injection, mice were randomly divided into groups of 15 and mice in each group were placed in plexiglass chambers (approximately 3 L) which were continuously flushed with gas mixtures of 20% O2:balance N2 and 10% O2:balance N2, respectively. […] After a 24 hour exposure to an atmosphere of either 20% O2 or 10% O2, mice were removed from the chambers and placed in regular cages kept at room air. Thirteen days later, mice were sacrificed by cervical dislocation, and lungs were removed and fixed in Bouin's fixative (Sigma). Metastatic nodules (many of which appeared black due to the presence of melanin) on the surface of the lungs were counted visually under a dissecting microscope. Data were expressed as the number of lung nodules per 10^4 cells injected and were analyzed using statistical tests for non-parametric values.
as §1, §2

[6] = system: MDA-MB-231 breast carcinoma spheroids; test: Clonogenic survival of MDA-MB-231 spheroids after doxorubicin; type: cell-based, human
Experimental: Following initial cell plating, spheroids formed for 24, 48, 72, 96 or 120 h. At each time point, spheroids were exposed to 200 μM of doxorubicin, then disaggregated and plated for assessment of colony formation (survival).
Spheroids were allowed to form for 72 h. DETA/NO was applied for the final 24 h of spheroid formation. Spheroids were then exposed to doxorubicin for 1 h, prior to disaggregation and plating for assessment of survival by clonogenic assay.
Using human MDA-MB-231 breast carcinoma cells in clonogenic assays, survival was determined following doxorubicin exposure and NO mimetic administration to both monolayer and spheroid cultures.

[7] = 8-Br-cGMP 0.1 μM-10 μM, 24 hours, dose-dependent
[8] = 8-Br-cGMP 10^−3-10^−7 M, 0.5% O2 or DFO 100 μM

CCCN(CCCN)N(O)N=O [3-(n-propylamino)propylamine bis(nitric oxide) adduct]
cell viability [1]: did not significantly affect cell viability

N=c1c[n+](N2CCOCC2)[n-]o1 [3-morpholinosydnonimine]
IC50 [2]: 490 µM

Nc1nc2c(nc(Br)n2[C@@H]2O[C@@H]3COP(=O)(O)O[C@H]3[C@H]2O)c(=O)[nH]1 [8-Br-cGMP, 8-bromoguanosine 3′:5′-cyclic monophosphate]
reduction of hypoxic upregulation of uPAR protein expression (uPAR protein; [7]): up to 100%
effect on hypoxia- and DFO-induced uPAR expression, protein level (uPAR protein; [8]): significantly abrogated
viability of the cells (colony formation assay) [3]: did not affect the viability
reduction of hypoxic upregulation of uPAR mRNA expression (uPAR mRNA; [7]): up to 100%
effect on hypoxia- and DFO-induced uPAR expression, mRNA level (uPAR mRNA; [8]): significantly abrogated
DFO-induced upregulation of uPAR mRNA expression (uPAR mRNA; 8-Br-cGMP (1 mM) as printed): complete inhibition
effect of hypoxia on invasiveness ([4]; 0.1 μM-1 mM, 24-h, 0.5% O2): completely inhibited
hypoxia-associated invasion ([4]; 8-Br-cGMP): significantly inhibit
hypoxic induction of metastatic lung nodules [5]: completely abrogated

NCCN(CCN)/[N+]([O-])=N/O [DETA, Diethylenetriamine/nitric oxide adduct]
attenuation of resistance to 200 μM doxorubicin associated with 3D culture [6]: 90%
survival of control (doxorubicin-untreated) cells ([6]; DETA 0.1 mM and 2 μM, GTN 0.1 nM and 1 μM): did not affect the survival

CC(=O)N(O)CCCCCNC(=O)CCC(=O)N(O)CCCCCNC(=O)CCC(=O)N(O)CCCCCN.CS(=O)(=O)O [DFO, Desferoxamine mesylate]
increase in uPAR mRNA levels (uPAR mRNA; cells cultured in the presence of DFO): 4 fold

O=S(=O)(NCCNC/C=C/c1ccc(Br)cc1)c1cccc2cnccc12 [H-89]
effect of forskolin on uPAR expression (uPAR mRNA; H-89 1 μM with forskolin 10 μM): prevented
uPAR expression (uPAR mRNA; H-89 1 μM, independent of oxygenation): up-regulation
invasiveness ([4]; H-89 1 μM alone): independently enhanced invasiveness
effect of forskolin on invasion ([4]; H-89 1 μM with forskolin 10 μM): prevented

COC(=O)[C@@]1(OC)C[C@H]2O[C@]1(C)n1c3ccccc3c3c4c(c5c6ccccc6n2c5c31)C(=O)N(C)C4 [KT5823]
increase in uPAR protein expression (uPAR protein; KT5823 10 μM, 6 hours, 20% O2): 1.8 fold
effect on the effects of 8-Br-cGMP on uPAR expression (uPAR mRNA; KT5823 10 μM): significantly blunted
increase in uPAR mRNA expression (uPAR mRNA; KT5823 10 μM, 6 hours, 20% O2): 1.8 fold

O=NN(O)S(=O)(=O)O [N-nitrosohydroxylamine-N-sulfonate]
cell viability [1]: did not significantly affect cell viability

O=c1onc2cnc3ccccc3n12 [ODQ, 1H-[1,2,4]Oxadiazolo-[4,3-a]Quinoxalin-1-One]
effect on ability of GTN (10^−6 M) to abrogate hypoxic induction of uPAR, protein level (uPAR protein; ODQ 0.5 μM): substantially prevented
effect on ability of GTN (10^−6 M) to abrogate hypoxic induction of uPAR, mRNA level (uPAR mRNA; ODQ 0.5 μM): substantially prevented
increase in uPAR mRNA levels (uPAR mRNA; ODQ 0.5 μM, 24 hours, vs 20% O2 alone): 2.7 fold

N[C@@H](CCC(=O)N[C@@H](CSN=O)C(=O)NCC(=O)O)C(=O)O [S-nitroso-L-glutathione]
IC50 [2]: 211 µM

CCN(CC)[N+]([O-])=NO [diethylamine-bis(nitric oxide) adduct sodium salt]
cell viability [1]: did not significantly affect cell viability

CC(C)N[N+]([O-])=N[O-].[Na+] [isopropylamine-bis(nitric oxide) adduct sodium salt]
cell viability [1]: did not significantly affect cell viability

sodium trioxodinitrate (II) monohydrate
cell viability [1]: did not significantly affect cell viability
